Reference: ChEMBL document CHEMBL1155214, “Structure-affinity relationships of glutamine mimics incorporated into phosphopeptides targeted to the SH2 domain of signal transducer and activator of transcription 3” (J Med Chem, 2009)
pIC50: −log10 of the molar value.

The compounds below were run against T1, Signal transducer and activator of transcription 3 (Homo sapiens, UniProt P40763) (assay: Inhibition of Stat3 SH2 domain by fluorescence polarization assay).
T1 sequence (P40763 whole entry, the tested form may be a part): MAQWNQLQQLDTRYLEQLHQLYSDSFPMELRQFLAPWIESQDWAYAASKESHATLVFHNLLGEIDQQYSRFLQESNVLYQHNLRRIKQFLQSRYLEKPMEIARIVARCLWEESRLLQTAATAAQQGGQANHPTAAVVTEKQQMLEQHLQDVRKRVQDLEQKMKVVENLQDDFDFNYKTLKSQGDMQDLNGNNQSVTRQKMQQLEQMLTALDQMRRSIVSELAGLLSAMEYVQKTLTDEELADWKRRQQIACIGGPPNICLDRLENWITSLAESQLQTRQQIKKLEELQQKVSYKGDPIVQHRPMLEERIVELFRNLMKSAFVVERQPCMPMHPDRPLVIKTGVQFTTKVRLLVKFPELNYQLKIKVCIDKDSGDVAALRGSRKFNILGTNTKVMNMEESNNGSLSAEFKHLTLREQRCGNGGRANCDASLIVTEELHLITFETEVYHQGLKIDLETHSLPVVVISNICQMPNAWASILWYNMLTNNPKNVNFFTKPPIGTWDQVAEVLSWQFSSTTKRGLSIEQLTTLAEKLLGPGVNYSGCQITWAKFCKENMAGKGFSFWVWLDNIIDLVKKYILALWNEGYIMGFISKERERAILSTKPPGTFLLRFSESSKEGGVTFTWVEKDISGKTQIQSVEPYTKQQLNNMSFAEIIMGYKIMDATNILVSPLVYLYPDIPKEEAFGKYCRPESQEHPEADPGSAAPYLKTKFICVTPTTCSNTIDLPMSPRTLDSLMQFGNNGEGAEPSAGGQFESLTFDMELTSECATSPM

Structure (SMILES)	pIC50
CC(=O)NC[C@H](CCC(N)=O)NC(=O)[C@@H]1CCCN1C(=O)[C@H](CC(C)C)NC(=O)/C=C/c1ccc(OP(=O)(O)O)cc1	6.23
CC(C)C[C@H](NC(=O)/C=C/c1ccc(OP(=O)(O)O)cc1)C(=O)N1CCC[C@H]1C(=O)N[C@@H](CCC(N)=O)CN1CCCCC1	5.92
CC(C)C[C@H](NC(=O)/C=C/c1ccc(OP(=O)(O)O)cc1)C(=O)N1CCC[C@H]1C(=O)N[C@@H](CCC(N)=O)CN1CCOCC1	5.82
CC(C)C[C@H](NC(=O)/C=C/c1ccc(OP(=O)(O)O)cc1)C(=O)N1C[C@H]2C[C@H]2[C@H]1C(=O)N[C@@H](CCC(N)=O)[C@@H](C)OCc1ccccc1 (mixture of isomers)	7.16
CC(C)C[C@H](NC(=O)/C=C/c1ccc(OP(=O)(O)O)cc1)C(=O)N1CCC[C@H]1C(=O)NCCNC(N)=O	6.88
CC(C)C[C@H](NC(=O)/C=C/c1ccc(OP(=O)(O)O)cc1)C(=O)N1CCC[C@H]1C(=O)N[C@@H](CCC(N)=O)Cc1ccc(O)cc1	6.07
CC(C)C[C@H](NC(=O)/C=C/c1ccc(OP(=O)(O)O)cc1)C(=O)N1CCC[C@H]1C(=O)N[C@@H](CCC(N)=O)CN1CCN(C)CC1	5.88
CC(C)C[C@H](NC(=O)/C=C/c1ccc(OP(=O)(O)O)cc1)C(=O)N1C[C@H]2C[C@H]2[C@H]1C(=O)N[C@@H](CCC(N)=O)C(C)C	6.29
CC(C)C[C@H](NC(=O)/C=C/c1ccc(OP(=O)(O)O)cc1)C(=O)N1CCC[C@H]1C(=O)N[C@H](CN)CCC(N)=O	5.91
CC(C)C[C@H](NC(=O)/C=C/c1ccc(OP(=O)(O)O)cc1)C(=O)N1C[C@H]2C[C@H]2[C@H]1C(=O)NCCCC(N)=O	6.52
CC(C)C[C@H](NC(=O)/C=C/c1ccc(OP(=O)(O)O)cc1)C(=O)N1CCC[C@H]1C(=O)NCCOC(N)=O	6.44
CC(C)C[C@H](NC(=O)/C=C/c1ccc(OP(=O)(O)O)cc1)C(=O)N1CCC[C@H]1C(=O)N[C@@H](CCC(N)=O)CN(Cc1ccccc1)Cc1ccccc1	5.97
CC(C)C[C@H](CCC(N)=O)NC(=O)[C@@H]1[C@@H]2C[C@@H]2CN1C(=O)[C@H](CC(C)C)NC(=O)/C=C/c1ccc(OP(=O)(O)O)cc1	5.79
CC(C)C[C@H](NC(=O)/C=C/c1ccc(OP(=O)(O)O)cc1)C(=O)N1C[C@H]2C[C@H]2[C@H]1C(=O)N[C@@H](CCC(N)=O)COCc1ccccc1	7.03
CC(C)C[C@H](NC(=O)/C=C/c1ccc(OP(=O)(O)O)cc1)C(=O)N1CCC[C@H]1C(=O)N[C@H](COCc1ccccc1)COC(N)=O	6.34
CC(C)C[C@H](NC(=O)/C=C/c1ccc(OP(=O)(O)O)cc1)C(=O)N1CCC[C@H]1C(=O)N[C@H](C)COC(N)=O	6.10
CC(C)C[C@H](NC(=O)/C=C/c1ccc(OP(=O)(O)O)cc1)C(=O)N1C[C@H]2C[C@H]2[C@H]1C(=O)N[C@@H](CCC(N)=O)[C@@H](C)O	6.36
CC(C)C[C@H](CCC(N)=O)NC(=O)[C@@H]1CCCN1C(=O)[C@H](CC(C)C)NC(=O)/C=C/c1ccc(OP(=O)(O)O)cc1	5.31
CC(C)C[C@H](NC(=O)/C=C/c1ccc(OP(=O)(O)O)cc1)C(=O)N1CCC[C@H]1C(=O)N[C@@H](CCC(N)=O)COC(N)=O	6.21
CC(C)C[C@H](NC(=O)/C=C/c1ccc(OP(=O)(O)O)cc1)C(=O)N1C[C@H]2C[C@H]2[C@H]1C(=O)N[C@H](C)CCC(N)=O	6.76
CC(C)C[C@H](NC(=O)/C=C/c1ccc(OP(=O)(O)O)cc1)C(=O)N1CCC[C@H]1C(=O)N[C@@H](CCC(N)=O)C(C)C	5.73
CCCC[C@H](CCC(N)=O)NC(=O)[C@@H]1CCCN1C(=O)[C@H](CC(C)C)NC(=O)/C=C/c1ccc(OP(=O)(O)O)cc1	5.87
CC(C)C[C@H](NC(=O)/C=C/c1ccc(OP(=O)(O)O)cc1)C(=O)N1C[C@H]2C[C@H]2[C@H]1C(=O)N[C@@H](CCC(N)=O)C(=O)NCc1ccccc1	7.17
CC(C)C[C@H](NC(=O)/C=C/c1ccc(OP(=O)(O)O)cc1)C(=O)N1C[C@H]2C[C@H]2[C@H]1C(=O)NCCOCc1ccccc1	7.16
CC(C)C[C@H](NC(=O)/C=C/c1ccc(OP(=O)(O)O)cc1)C(=O)N1CCC[C@H]1C(=O)N[C@H](C)CNC(N)=O	5.87

What follows are compounds tested against T1, Signal transducer and activator of transcription 3 (assay: Ratio of compound IC50 to 4-(3-((S)-1-((S)-2-((S)-5-amino-1-(benzylamino)-1,5-dioxopentan-2-ylcarbamoyl)pyrrolidin-1-yl)-4-methyl-1-oxopentan-2-ylamino)-3-oxoprop-1-enyl)phenyl dihydrogen phosphate IC50 for Stat3 SH2 domain).

Structure (SMILES)	Ratio IC50
CC(C)C[C@H](NC(=O)/C=C/c1ccc(OP(=O)(O)O)cc1)C(=O)N1CCC[C@H]1C(=O)N[C@@H](COC(N)=O)C(=O)NCc1ccccc1	3
CC(C)C[C@H](NC(=O)/C=C/c1ccc(OP(=O)(O)O)cc1)C(=O)N1CCC[C@H]1C(=O)N[C@H](C(=O)NCc1ccccc1)[C@@H](C)OC(N)=O	6
